Data reported in US20240285634A1, “COMPOUND AND METHOD FOR TREATING CHEMOTHERAPY-ASSOCIATED GASTROINTESTINAL SIDE EFFECTS” (ONQUALITY PHARMACEUTICALS CHINA LTD., priority 2021, published 2024).

Legend:
[1] = test system: Balb/c mice, diarrhea caused by continuous administration of a chemotherapeutic agent; assay: Relieving effect on diarrhea caused by the continuous administration of a chemotherapeutic agent (Examples 365-384); type: in vivo
Text: Balb/c mice were fed for 1 week, and then divided into groups. The experiment was divided into a control group, a chemotherapeutic agent group, and a group of the compound as shown in Formula I, each of which comprised 10 mice, to perform the administration experiment, for which the administration dosage, mode, time and frequency were shown in Table 5. The control group: being injected or intragastrically administered with the same solvent as that used in the group of the compound as shown in Formula I (the administration mode and time were shown in Table 5), and then being injected or intragastrically administered with the same solvent as that used in the chemotherapeutic agent group (the administration mode was shown in Table 5); the chemotherapeutic agent group: being injected or intragastrically administered with the same solvent as that used in the group of the compound as shown in Formula I (the administration mode and time were shown in Table 5), and then being injected or intragastrically administered with the chemotherapeutic agent (the type, administration mode, time and dosage were shown in Table 5); the group of the compound as shown in Formula I: being injected or intragastrically administered with the compound as shown in Formula I (the administration mode and time were shown in Table 5), and then being administered with the chemotherapeutic agent (the type, administration mode, time and dosage were shown in Table 5).
(§1) The scoring of diarrhea can refer to the method of Akinobu Kurita (Cancer Chemother Pharmacol 2000; 46:211-20.), Grade 0): normal feces; Grade 1: mild diarrhea, the stools is slightly wet and soft; Grade 2: moderate diarrhea, loose stools and mild perianal contamination; Grade 3: severe diarrhea, watery stools and accompanied by severe perianal staining (see FIG. 1). It is regarded as effective remission when the diarrhea grading of mice in the group of the compound as shown in Formula I is reduced compared with the average diarrhea grading of mice in the chemotherapeutic agent group.
(§2) The diarrhea grading of mice was observed and recorded every day. At the end of the experiment, the number of mice in the group of the compound as shown in Formula I whose diarrhea grading was lower than that of mice in the chemotherapeutic agent group was recorded. Table 5 lists various animal experiment combinations of chemotherapeutic agents and the compound as shown in Formula I, as well as the corresponding experimental results. (Relative remission rate %=the number of mice in the group of the compound as shown in Formula I whose diarrhea has been effectively relieved/the total number of mice in the group of the compound as shown in Formula I*100%. The establishment rate of diarrhea model in the chemotherapeutic agent group was 50%-80%, that is, about 5-8 of 10 mice developed diarrhea during the experiment, and there were cases of individual mice death or not developing diarrhea.)

[2] = test system: Chemotherapeutic agent-caused diarrhea models of Balb/c mice; assay: Relieving effect on diarrhea caused by a chemotherapeutic agent (Examples 1-201); type: in vivo
Text: Construction of mouse animal models: Chemotherapeutic agent-caused diarrhea models of Balb/c mice were constructed according to the administration mode and frequency of the chemotherapeutic agent as shown in Table 3. After administration for several days, mice developed different extents of diarrhea symptoms (as shown in FIG. 1), which were similar to the conditions in human. Thus, chemotherapeutic agent-caused diarrhea models of mice are very good models to mimic diarrhea in human caused by the chemotherapeutic agent.
Balb/c mice were fed for 1 week, and then divided into groups. The experiment was divided into a control group, a chemotherapeutic agent group, and a group of the compound as shown in Formula I, each of which comprised 10 mice, to perform the administration experiment, for which the administration dosage, mode, time and frequency were shown in Table 3. The control group: being injected or intragastrically administered with the same solvent as that used in the group of the compound as shown in Formula I (the injection mode and time were shown in Table 3), and then being injected or intragastrically administered with the same solvent as that used in the chemotherapeutic agent group (the administration mode was shown in Table 3); the chemotherapeutic agent group: being injected or intragastrically administered with the same solvent as that used in the group of the compound as shown in Formula I (the administration mode and time were shown in Table 3), and then being injected or intragastrically administered with the chemotherapeutic agent (the type, administration mode and dosage were shown in Table 3); the group of the compound as shown in Formula I: being injected or intragastrically administered with the compound as shown in Formula I (the administration mode and time were shown in Table 3), and then being administered with the chemotherapeutic agent (the administration mode and dosage were shown in Table 3).
as §1, with “0:” for “0):”
as §2, with “3” for “5”, “50%-70%,” for “50%-80%,”, “5-7” for “5-8”

Structure (SMILES): CN1CCN(c2ccc(Nc3ncc4cc5n(c4n3)C3(CCCCC3)CNC5=O)nc2)CC1 [Compound I, Trilaciclib]
- Relative remission rate (%) ([1]; Example 365, Fluorouracil (5-Fu) intraperitoneal injection 70 mg/kg once a day, for 3 days, compound intravenous injection 100 mg/kg once a day, for 3 days, 2 h before chemotherapeutic agent, cycle 10 days): 60%
- Relative remission rate (%) ([1]; Example 366, Fluorouracil (5-Fu) intraperitoneal injection 70 mg/kg once a day, for 3 days, compound intravenous injection 100 mg/kg once a day, for 3 days, 4 h before chemotherapeutic agent, cycle 10 days): 40%
- Relative remission rate (%) ([1]; Example 367, Fluorouracil (5-Fu) intraperitoneal injection 70 mg/kg once a day, for 3 days, compound intravenous injection 100 mg/kg once a day, for 3 days, 6 h before chemotherapeutic agent, cycle 10 days): 30%
- Relative remission rate (%) ([1]; Example 368, Fluorouracil (5-Fu) intraperitoneal injection 70 mg/kg once a day, for 3 days, compound intravenous injection 100 mg/kg once a day, for 3 days, 8 h before chemotherapeutic agent, cycle 10 days): 20%
- Relative remission rate (%) ([1]; Example 369, Fluorouracil (5-Fu) intraperitoneal injection 70 mg/kg once a day, for 5 days, compound intraperitoneal injection 100 mg/kg once a day, for 5 days, 2 h before chemotherapeutic agent, cycle 9 days): 50%
- Relative remission rate (%) ([1]; Example 370, Fluorouracil (5-Fu) intraperitoneal injection 70 mg/kg once a day, for 5 days, compound intraperitoneal injection 100 mg/kg once a day, for 5 days, 4 h before chemotherapeutic agent, cycle 9 days): 30%
- Relative remission rate (%) ([1]; Example 371, Fluorouracil (5-Fu) intraperitoneal injection 70 mg/kg once a day, for 5 days, compound intraperitoneal injection 100 mg/kg once a day, for 5 days, 6 h before chemotherapeutic agent, cycle 9 days): 20%
- Relative remission rate (%) ([1]; Example 372, Fluorouracil (5-Fu) intraperitoneal injection 70 mg/kg once a day, for 5 days, compound intraperitoneal injection 100 mg/kg once a day, for 5 days, 8 h before chemotherapeutic agent, cycle 9 days): 10%
- Relative remission rate (%) ([1]; Example 376, Fluorouracil (5-Fu) intraperitoneal injection 70 mg/kg once a day, for 7 days, compound intraperitoneal injection 125 mg/kg once a day, for 7 days, 2 h before chemotherapeutic agent, cycle 10 days): 10%
- Relative remission rate (%) ([1]; Example 383, Fluorouracil (5-Fu) intravenous injection 70 mg/kg once a day for 3 days, compound oral administration 100 mg/kg once a day, for 3 days, 6 h before chemotherapeutic agent, cycle 8 days): 50%
- Relative remission rate (%) ([1]; Example 384, Fluorouracil (5-Fu) oral administration 50 mg/kg once a day, for 14 days, compound intraperitoneal injection 100 mg/kg once a day, for 14 days, 8 h before chemotherapeutic agent, cycle 14 days): Ineffective
- relieving effect on diarrhea ([1]; continuous administration of fluorouracil for 14 days): ineffective
- relieving effects on diarrhea ([1]; continuous administration of the chemotherapeutic agent for 7 days or less): have relieving effects
- relieving effects on diarrhea ([1]; continuous administration of the chemotherapeutic agent for less than 7 days): significant
- Relative remission rate ([2]; Ex 1, 5-Fu 125 mg/kg intraperitoneal single, compound 100 mg/kg intravenous single 0.5 h before, cycle 10 days): 70%
- Relative remission rate ([2]; Ex 2, 5-Fu 125 mg/kg intraperitoneal single, compound 100 mg/kg intravenous single 1 h before, cycle 10 days): 70%
- Relative remission rate ([2]; Ex 3, 5-Fu 125 mg/kg intraperitoneal single, compound 100 mg/kg intravenous single 2 h before, cycle 10 days): 60%
- Relative remission rate ([2]; Ex 4, 5-Fu 125 mg/kg intraperitoneal single, compound 100 mg/kg intravenous single 3 h before, cycle 10 days): 60%
- Relative remission rate ([2]; Ex 5, 5-Fu 125 mg/kg intraperitoneal single, compound 100 mg/kg intravenous single 4 h before, cycle 10 days): 60%
- Relative remission rate ([2]; Ex 6, 5-Fu 125 mg/kg intraperitoneal single, compound 100 mg/kg intravenous single 5 h before, cycle 10 days): 40%
- Relative remission rate ([2]; Ex 7, 5-Fu 125 mg/kg intraperitoneal single, compound 100 mg/kg intravenous single 6 h before, cycle 10 days): 40%
- Relative remission rate ([2]; Ex 8, 5-Fu 125 mg/kg intraperitoneal single, compound 100 mg/kg intravenous single 7 h before, cycle 10 days): 40%
- Relative remission rate ([2]; Ex 9, 5-Fu 125 mg/kg intraperitoneal single, compound 100 mg/kg intravenous single 8 h before, cycle 10 days): 50%
- Relative remission rate ([2]; Ex 10, 5-Fu 125 mg/kg intraperitoneal single, compound 100 mg/kg intravenous single 9 h before, cycle 10 days): 40%
- Relative remission rate ([2]; Ex 11, 5-Fu 125 mg/kg intraperitoneal single, compound 100 mg/kg intravenous single 10 h before, cycle 10 days): 50%
- Relative remission rate ([2]; Ex 12, 5-Fu 125 mg/kg intraperitoneal single, compound 100 mg/kg intravenous single 11 h before, cycle 10 days): 40%
- Relative remission rate ([2]; Ex 13, 5-Fu 125 mg/kg intraperitoneal single, compound 12.5 mg/kg intravenous single 12 h before, cycle 10 days): 30%
- Relative remission rate ([2]; Ex 14, 5-Fu 125 mg/kg intraperitoneal single, compound 25 mg/kg intravenous single 12 h before, cycle 10 days): 40%
- Relative remission rate ([2]; Ex 15, 5-Fu 125 mg/kg intraperitoneal single, compound 50 mg/kg intravenous single 12 h before, cycle 10 days): 60%
- Relative remission rate ([2]; Ex 16, 5-Fu 125 mg/kg intraperitoneal single, compound 100 mg/kg intravenous single 12 h before, cycle 10 days): 70%
- Relative remission rate ([2]; Ex 17, 5-Fu 125 mg/kg intraperitoneal single, compound 150 mg/kg intravenous single 12 h before, cycle 10 days): 50%
- Relative remission rate ([2]; Ex 18, 5-Fu 125 mg/kg intraperitoneal single, compound 240 mg/kg intravenous single 12 h before, cycle 10 days): 50%
- Relative remission rate ([2]; Ex 86, Oxaliplatin 17.5 mg/kg intravenous single, compound 150 mg/kg intravenous single 20 h before, cycle 8 days): 40%
- Relative remission rate ([2]; Ex 87, Oxaliplatin 17.5 mg/kg intravenous single, compound 150 mg/kg intravenous single 24 h before, cycle 8 days): 50%
- Relative remission rate ([2]; Ex 88, Oxaliplatin 17.5 mg/kg intravenous single, compound 150 mg/kg intravenous single 48 h before, cycle 8 days): 0%
- Relative remission rate ([2]; Ex 92, Irinotecan (CPT-11) 240 mg/kg intraperitoneal single, compound 100 mg/kg intravenous single 0.5 h before, cycle 7 days): 50%
- Relative remission rate ([2]; Ex 93, Irinotecan (CPT-11) 240 mg/kg intraperitoneal single, compound 100 mg/kg intravenous single 1 h before, cycle 7 days): 50%
- Relative remission rate ([2]; Ex 94, Irinotecan (CPT-11) 240 mg/kg intraperitoneal single, compound 100 mg/kg intravenous single 2 h before, cycle 7 days): 50%
- Relative remission rate ([2]; Ex 95, Irinotecan (CPT-11) 240 mg/kg intraperitoneal single, compound 100 mg/kg intravenous single 3 h before, cycle 7 days): 40%
- Relative remission rate ([2]; Ex 96, Irinotecan (CPT-11) 240 mg/kg intraperitoneal single, compound 100 mg/kg intravenous single 4 h before, cycle 7 days): 50%
- Relative remission rate ([2]; Ex 97, Irinotecan (CPT-11) 240 mg/kg intraperitoneal single, compound 100 mg/kg intravenous single 5 h before, cycle 7 days): 40%
- Relative remission rate ([2]; Ex 98, Irinotecan (CPT-11) 240 mg/kg intraperitoneal single, compound 100 mg/kg intravenous single 6 h before, cycle 7 days): 40%
- Relative remission rate ([2]; Ex 99, Irinotecan (CPT-11) 240 mg/kg intraperitoneal single, compound 100 mg/kg intravenous single 7 h before, cycle 7 days): 70%
- Relative remission rate ([2]; Ex 100, Irinotecan (CPT-11) 240 mg/kg intraperitoneal single, compound 100 mg/kg intravenous single 8 h before, cycle 7 days): 70%
- Relative remission rate ([2]; Ex 101, Irinotecan (CPT-11) 240 mg/kg intraperitoneal single, compound 100 mg/kg intravenous single 9 h before, cycle 7 days): 60%
- Relative remission rate ([2]; Ex 102, Irinotecan (CPT-11) 240 mg/kg intraperitoneal single, compound 100 mg/kg intravenous single 10 h before, cycle 7 days): 40%
- Relative remission rate ([2]; Ex 103, Irinotecan (CPT-11) 240 mg/kg intraperitoneal single, compound 100 mg/kg intravenous single 11 h before, cycle 7 days): 60%
- Relative remission rate ([2]; Ex 104, Irinotecan (CPT-11) 240 mg/kg intraperitoneal single, compound 100 mg/kg intravenous single 12 h before, cycle 7 days): 60%
- Relative remission rate ([2]; Ex 105, Irinotecan (CPT-11) 240 mg/kg intraperitoneal single, compound 100 mg/kg intravenous single 14 h before, cycle 7 days): 50%
- Relative remission rate ([2]; Ex 106, Irinotecan (CPT-11) 240 mg/kg intraperitoneal single, compound 100 mg/kg intravenous single 16 h before, cycle 7 days): 70%
- Relative remission rate ([2]; Ex 107, Irinotecan (CPT-11) 240 mg/kg intraperitoneal single, compound 100 mg/kg intravenous single 18 h before, cycle 7 days): 70%
- Relative remission rate ([2]; Ex 108, Irinotecan (CPT-11) 240 mg/kg intraperitoneal single, compound 100 mg/kg intravenous single 20 h before, cycle 7 days): 40%
- Relative remission rate ([2]; Ex 109, Irinotecan (CPT-11) 240 mg/kg intraperitoneal single, compound 100 mg/kg intravenous single 22 h before, cycle 7 days): 40%
- Relative remission rate ([2]; Ex 110, Irinotecan (CPT-11) 240 mg/kg intraperitoneal single, compound 100 mg/kg intravenous single 24 h before, cycle 7 days): 30%
